Laboratory results: patent US6040149A, “Assay for identifying agents which act on the ceramide-activated protein kinase, kinase suppressor of ras, and methods of using said agents” (priority 1997, dated 2000)
Read-outs that look alike come from different tables or passages of the source.

Columns and labels:
[1] = system: ceramide-activated protein kinase; test: EGFR peptide phosphorylation by kinase in A-431 microsomal membranes / postnuclear supernatant; assay type: biochemical, human (A-431 epidermoid carcinoma cells)
Protocol: Kinetics of ^32 Pi incorporation into the EGFR peptide. […] The reaction was initiated by addition of 50 μl of [γ-^32 P]ATP (150 μM final concentration) and terminated by addition of 50 μl of 0.5 M ATP in 90% (vol/vol) formic acid. Samples were spotted on phosphocellulose paper, washed with 1 M acetic acid/4 mM pyrophosphate, and ^32 P incorporation was measured by liquid-scintillation counting, as described. A boiled protein blank was subtracted from each data value. The data (means) represent duplicate samples from one of two similar experiments. […]
Kinetics of ceramide-induced ^32 Pi incorporation into EGFR peptide. Peptide phosphorylation was done as described in FIG. 2 in the absence (.smallcircle.) or presence (.circle-solid.) of 0.5 μM C8 -ceramide. Phosphorylated peptide was resolved by HPLC. Values (means) represent data from three experiments.
Concentration-dependence of ceramide-induced ^32 Pi incorporation into EGFR peptide. Peptide phosphorylation reactions were done as described for FIG. 2, for 2 minutes, using various concentrations of ceramide (0.001-3 μM). Phosphorylated peptide was resolved by HPLC. Values (means) represent data from three experiments. […]
Phosphorylation was initiated at 22° C. by addition of 50 μl of [γ-^32 P] ATP (150 μM final concentration; 4000 dpm/pmol). For studies with lipid activators, ceramide and other lipids were dried under N2 and resuspended in the kinase assay buffer by bath sonication for 2 minutes at 37° C.
Phosphorylated peptide was quantified by two separate methods. For initial studies, samples were spotted on phosphocellulose paper, washed in 1 M acetic acid/4 mM pyrophosphate and subjected to liquid scintillation counting, according to methods well known to those skilled in the art. Values obtained from a boiled blank or a sample lacking peptide were subtracted from each determination. Alternatively, HPLC was done according to methods well known to those skilled in the art. For these studies, samples were first applied to a C18 Sep-Pak cartridge and eluted with 99.9% acetonitrile/0.1% trifluoroacetic acid. The eluates were lyophilized, resuspended in 6 M guanidine hydrochloride/200 mM Tris, pH 8.5 and applied to a C18 reverse-phase column (Dynamax, 4.6 mm i.d., Rainin, Woburn, Mass.). The peptide was eluted with a linear gradient (1% per minute) of acetonitrile at a flow rate of 1 ml/minute and was detected by measuring the Cerenkov radiation associated with 1-ml fractions.

[2] = system: ceramide-activated protein kinase; test: Ceramide-activated protein kinase activity (EGFR peptide) in EL-4 cell fractions; details: baseline, EL-4 membranes
Protocol: Effect of IL-1β on ceramide-activated protein kinase activity. […] Homogenates were centrifuged at 500×g for 5 minutes to remove nuclei and at 200,000×g for 30 minutes to prepare microsomal membranes. Membranes were resuspended into homogenizing buffer (2.2 μg membrane protein μl^-1). For assay of kinase activity, the reaction mixture contained 20 μl of microsomal membrane, 40 μl EGFR peptide (4 mg ml^-1 in 25 mM Hepes, pH 7.4) and 100 μl buffer (50 mM HEPES, pH 7.4, 20 mM MgCl2). Phosphorylation was initiated at 22° C. by addition of 40 μl [γ-^32 P] ATP (100 μM final concentration) and terminated at the indicated times by addition of 40 μl of 0.5 M ATP in 90% formic acid. Phosphorylated peptide was eluted from a C18 Sep pak cartridge (Millipore), lyophilized, and resolved by C18 reverse phase HPLC using a linear gradient of acetonitrile. […] All assays were performed under conditions determined as linear for time and enzyme concentration. Enzyme activity was determined from the percent conversion of substrate to product and the specific radioactivity of [γ-^32 P] ATP. […] Values (mean±range) represent duplicate determinations from two experiments.
Activity was measured by the transfer of ^32 P from the γ-position of ATP to EGFR peptide (AA 663-681 of the EGFR). The effect of IL-1β on kinase activity was determined using microsomal membranes derived from cells stimulated with IL-1β.

[3] = system: ceramide-activated protein kinase; details: nuclei-free supernates, ref. [40], cited from earlier work

Molecule	Km ([1]; 5 minutes, Lineweaver-Burke, read-out: apparent Km (ATP)) [µM]	Km ([2]; read-out: Km (ATP)) [µM]	Km ([3]; read-out: Km (ATP)) [µM]	apparent Km (EGFR peptide) ([1]; 5 minutes, Lineweaver-Burke) [mg/mL]	apparent Vmax ([1]; EGFR peptide phosphorylation)	Km (EGFR peptide) [2] [mg/mL]	maximum reaction velocity [2]	Km (peptide) [3] [mg/mL]
Nc1ncnc2c1ncn2[C@@H]1O[C@H](COP(=O)(O)OP(=O)(O)OP(=O)(O)O)[C@@H](O)[C@H]1O [ATP, adenosine triphosphate]	15	70	15	–	–	–	–	–
NH2 -Glu-Leu-Val-Glu-Pro-Leu-Thr-Pro-Ser-Gly-Glu-Ala-Pro-Asn-Gln-Ala-Leu-Leu-Arg-COOH (H-ELVEPLTPSGEAPNQALLR-OH) [EGFR peptide]	–	–	–	0.25	100-200 pmol.min^-1.mg of protein^-1	0.15	12.5 pmol min^-1 mg^-1 of microsomal membrane protein	0.25
